Patent US10953027B2, “Active agents and methods of their use for the treatment of metabolic disorders and nonalcoholic fatty liver disease” (Flagship Pioneering Innovations V, Inc., priority 2018, dated 2021)

How the values were obtained:
Format in all cases: in vitro ADME
[1] = Assay 1. Stability in Simulated Gastric Fluid (SGF); conditions: 1 μM, 37° C., SGF pH 1.6 with pepsin
In short: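 Simulated gastric fluid, prepared fresh as NaCl buffer at pH 1.6 with 0.1 mg/mL pepsin and FaSSIF powder, received test compound to 1 μM final and was held at 37 °C. LC/MS of acetonitrile-quenched samples, taken immediately and then periodically, gave degradation rates.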

[2] = Assay 2. Stability in Simulated Intestinal Fluid (SIF); conditions: 1 μM, 37° C., SIF pH 6.7 with pancreatin
In short: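 Degradation rate measured by LC/MS after acetonitrile quench of timed aliquots, starting at T0. Test compound 1 μM in simulated intestinal fluid (pH 6.7 phosphate buffer, FaSSIF powder, pancreatin), shaken at 37 °C.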

[3] = Assay 3. Fecal Incubation Stability; conditions: 1 or 10 μM, human fecal slurry, anaerobic
Experimental: Assay 3. Fecal Incubation Stability. This assay was used to assess the stability of an acylated active agent in a large intestine. All experiments were performed in an anaerobic chamber containing 90% nitrogen, 5% hydrogen and 5% carbon dioxide. Human fecal matter in a slurry (15% WV) is added to 96 well plates containing YCFA media or other suitable media (1.6 mL). Compounds were added to each individual well to reach a final analyte concentration of 1 or 10 μM, and the material was mixed by pipetting. At set time points a sample was removed, quenched with acetonitrile, and analyzed by LC/MS.

SMILES | Assay 1 (SGF) (% Remaining @ 1 hours) [1] | Assay 2 (SIF) (% @ Remaining 4 hours) [2] | Assay 3 (% Remaining at 24 h) [3]
CCCC(=O)O[C@H]1[C@H](OC)OC[C@@H](OC(=O)CCC)[C@H]1OC(=O)CCC [Compound 83, (2R,3R,4R,5R)-3,5-bis(butanoyloxy)-2-methoxyoxan-4-yl Butanoate] | C (C: >75% of the tested compound remaining) | A (A: <25% of the tested compound remaining) | A (A: <25% of the tested compound remaining)
C[C@@H]1OC(O)[C@@H](OC(=O)CCc2c[nH]c3ccccc23)[C@H](OC(=O)CCc2c[nH]c3ccccc23)[C@@H]1OC(=O)CCc1c[nH]c2ccccc12 (stereo partly drawn) [Compound 95, (2S,3R,4R,5S)-6-hydroxy-4,5-bis({[3-(1H-indol-3-yl)propanoyl]oxy})-2-methyloxan-3-yl 3-(1H-indol-3-yl)propanoate] | C (C: >75% of the tested compound remaining) | A (A: <25% of the tested compound remaining) | C (C: >75% of the tested compound remaining)
CCCC(=O)O[C@H]1[C@H](OC(=O)CCC)[C@@H](OC(=O)CCc2c[nH]c3ccccc23)O[C@@H](C)[C@H]1OC(=O)CCC [Compound 120, (2R,3S,4R,5R,6S)-4,5-bis(butanoyloxy)-2-{[3-(1H-indol-3-yl)propanoyl]oxy}-6-methyloxan-3-yl Butanoate] | B (B: 25-75% of the tested compound remaining) | – | A (A: <25% of the tested compound remaining)
CCC(=O)Oc1ccc(-c2cc(=O)c3c(OC(=O)CC)cc(OC(=O)CC)cc3o2)cc1 [Compound 203, 4-oxo-7-(propanoyloxy)-2-[4-(propanoyloxy)phenyl]-4H-chromen-5-yl Propanoate] | C (C: >75% of the tested compound remaining) | A (A: <25% of the tested compound remaining) | B (B: 25-75% of the tested compound remaining)
CC(=O)OC[C@H]1O[C@@H](OC(C)=O)[C@H](N)[C@@H](OC(C)=O)[C@@H]1OC(C)=O [Compound 194, (2S,3R,4R,5S,6R)-6-(acetoxymethyl)-3-aminotetrahydro-2H-pyran-2,4,5-triyl Triacetate] | C (C: >75% of the tested compound remaining) | A (A: <25% of the tested compound remaining) | C (C: >75% of the tested compound remaining)
O=C(Cc1c[nH]c2ccccc12)O[C@H]1OC[C@H](OC(=O)Cc2c[nH]c3ccccc23)[C@H](OC(=O)Cc2c[nH]c3ccccc23)[C@H]1OC(=O)Cc1c[nH]c2ccccc12 [Compound 180, (2R,3R,4S,5S)-3,4,5-tris({[2-(1H-indol-3-yl)acetyl]oxy})oxan-2-yl 2-(1H-indol-3-yl)acetate] | B (B: 25-75% of the tested compound remaining) | A (A: <25% of the tested compound remaining) | A (A: <25% of the tested compound remaining)
CCC(=O)OC[C@H]1O[C@H](OC(=O)/C=C/c2c[nH]c3ccccc23)[C@H](OC(=O)CC)[C@@H](OC(=O)CC)[C@@H]1OC(=O)CC [Compound 131, (2R,3R,4S,5R,6R)-3,4,5-tris(propanoyloxy)-6-[(propanoyloxy)methyl]oxan-2-yl (2E)-3-(1H-indol-3-yl)prop-2-enoate] | B (B: 25-75% of the tested compound remaining) | – | A (A: <25% of the tested compound remaining)
CCCC(=O)OC[C@H]1O[C@H](OC)[C@H](OC(=O)CCC)[C@@H](OC(=O)CCC)[C@H]1OC(=O)CCC [Compound 89, [(2R,3S,4S,5R,6S)-3,4,5-tris(butanoyloxy)-6-methoxyoxan-2-yl]methyl Butanoate] | – | A (A: <25% of the tested compound remaining) | A (A: <25% of the tested compound remaining)
O=C(CCc1c[nH]c2ccccc12)Oc1ccc2c(c1)oc(=O)c1cc(OC(=O)CCc3c[nH]c4ccccc34)c(OC(=O)CCc3c[nH]c4ccccc34)cc12 [Compound 246, 8,9-bis({[3-(1H-indol-3-yl)propanoyl]oxy})-6-oxo-6H-benzo[c]chromen-3-yl 3-(1H-indol-3-yl)propanoate] | – | B (B: 25-75% of the tested compound remaining) | B (B: 25-75% of the tested compound remaining)
CCCC(=O)O[C@H]1[C@H](OC(=O)CCC)COC(O)[C@@H]1OC(=O)CCC (stereo partly drawn) [Compound 190, (3R,4S,5R)-4,5-bis(butanoyloxy)-2-hydroxyoxan-3-yl Butanoate] | – | A (A: <25% of the tested compound remaining) | A (A: <25% of the tested compound remaining)
C[C@@H]1O[C@@H](OC(=O)CCc2c[nH]c3ccccc23)[C@@H](OC(=O)CCc2c[nH]c3ccccc23)[C@H](OC(=O)CCc2c[nH]c3ccccc23)[C@@H]1OC(=O)CCc1c[nH]c2ccccc12 [Compound 97, (2S,3S,4R,5R,6S)-3,4,5-tris({[3-(1H-indol-3-yl)propanoyl]oxy})-6-methyloxan-2-yl 3-(1H-indol-3-yl)propanoate] | – | A (A: <25% of the tested compound remaining) | A (A: <25% of the tested compound remaining)
CCCC(=O)O[C@@H]1[C@@H](OC(=O)CCC)[C@H](C)O[C@H](OC(=O)CCc2c[nH]c3ccccc23)[C@@H]1OC(=O)CCC [Compound 119, (2R,3R,4R,5S,6S)-4,5-bis(butanoyloxy)-2-{[3-(1H-indol-3-yl)propanoyl]oxy}-6-methyloxan-3-yl Butanoate] | B (B: 25-75% of the tested compound remaining) | – | A (A: <25% of the tested compound remaining)
CCCC(=O)O[C@@H]1[C@@H](OC(=O)CCC)[C@H](OC(=O)CCc2c[nH]c3ccccc23)OC[C@H]1OC(=O)CCC [Compound 129, (2S,3R,4S,5R)-4,5-bis(butanoyloxy)-2-{[3-(1H-indol-3-yl)propanoyl]oxy}oxan-3-yl Butanoate] | B (B: 25-75% of the tested compound remaining) | – | A (A: <25% of the tested compound remaining)
CCC(=O)O[C@@H]1[C@@H](OC(=O)CC)[C@H](OC(=O)/C=C/c2c[nH]c3ccccc23)OC[C@@H]1OC(=O)CC [Compound 132, (2S,3R,4S,5S)-3,4,5-tris(propanoyloxy)oxan-2-yl (2E)-3-(1H-indol-3-yl)prop-2-enoate] | B (B: 25-75% of the tested compound remaining) | – | A (A: <25% of the tested compound remaining)
O=C(CCc1c[nH]c2ccccc12)O[C@@H]1O[C@H](C(=O)O)[C@@H](OC(=O)CCc2c[nH]c3ccccc23)[C@H](OC(=O)CCc2c[nH]c3ccccc23)[C@H]1OC(=O)CCc1c[nH]c2ccccc12 [Compound 82, (2S,3S,4S,5R,6S)-3,4,5,6-tetrakis({[3-(1H-indol-3-yl)propanoyl]oxy})oxane-2-carboxylic Acid] | – | A (A: <25% of the tested compound remaining) | A (A: <25% of the tested compound remaining)
O=C(CCc1c[nH]c2ccccc12)O[C@H]1OC[C@H](OC(=O)CCc2c[nH]c3ccccc23)[C@H](OC(=O)CCc2c[nH]c3ccccc23)[C@H]1OC(=O)CCc1c[nH]c2ccccc12 [Compound 181, (2R,3R,4S,5S)-3,4,5-tris({[3-(1H-indol-3-yl)propanoyl]oxy})oxan-2-yl 3-(1H-indol-3-yl)propanoate] | – | A (A: <25% of the tested compound remaining) | A (A: <25% of the tested compound remaining)
CCCC(=O)OC[C@H]1O[C@@H](OC)[C@H](OC(=O)CCC)[C@@H](OC(=O)CCC)[C@@H]1OC(=O)CCC [Compound 91, [(2R,3R,4S,5R,6R)-3,4,5-tris(butanoyloxy)-6-methoxyoxan-2-yl]methyl Butanoate] | – | A (A: <25% of the tested compound remaining) | A (A: <25% of the tested compound remaining)
CCC(=O)O[C@H]1[C@H](OC(=O)CC)[C@H](OC(=O)CCc2c[nH]c3ccccc23)O[C@@H](C)[C@H]1OC(=O)CC [Compound 155, (2S,3S,4R,5R,6S)-6-methyl-3,4,5-tris(propanoyloxy)oxan-2-yl 3-(1H-indol-3-yl)propanoate] | – | C (C: >75% of the tested compound remaining) | A (A: <25% of the tested compound remaining)
CCC(=O)OC[C@H]1O[C@@H](OC)[C@H](OC(=O)CC)[C@@H](OC(=O)CC)[C@H]1OC(=O)CC [Compound 94, [(2R,3S,4S,5R,6R)-6-methoxy-3,4,5-tris(propanoyloxy)oxan-2-yl]methyl Propanoate] | – | A (A: <25% of the tested compound remaining) | A (A: <25% of the tested compound remaining)
CCCC(=O)O[C@@H]1[C@@H](OC(=O)CCC)[C@H](OC)OC[C@H]1OC(=O)CCC [Compound 121, (2R,3R,4S,5R)-4,5-bis(butanoyloxy)-2-methoxyoxan-3-yl Butanoate] | – | A (A: <25% of the tested compound remaining) | A (A: <25% of the tested compound remaining)
